Laboratory results reported in patent US11174298B2, “Preparation and use of ginsentides and ginsentide-like peptides” (priority 2016, dated 2021).

Columns and labels:
H9c2 cells = test: MTT cell viability of H9c2 cells, co-treatment with DOX; format: cell-based, rat
Experimental: To identify whether ginsentides can attenuate DOX-induced cardiotoxicity in cardiomyocytes, cell viability after drug treatment was measured by MTT assay.
After 24 h co-treatment of DOX with ginsentides, the viability of H9c2 cells was enhanced by ˜20% compared to the DOX-alone treatment (FIG. 43.).

α1-adrenergic receptor = test: Phenylephrine-induced aortic ring contraction, isometric tension, ex vivo; design: species or system rat; details: thoracic aorta pre-contracted with phenylephrine (0.1 μM)
isolated thoracic aorta = test: KCl-induced aortic ring contraction, isometric tension, ex vivo; design: species or system rat; details: thoracic aorta pre-contracted with KCl (30 mM)
[1] = tested on: human endothelial cells (HUVEC-CS); test: Cellular NO synthesis in HUVEC-CS (DAF-2 DA staining); format: cell-based
[2] = Heparin HPLC affinity column; format: binding
Excerpt: Heparin-binding properties of ginsentides using heparin HPLC affinity column.

| Molecule | Protective effects on cardiomyocytes during DOX-treatment (H9c2 cells) | Relaxation of phenylephrine-induced aortic ring contraction (α1-adrenergic receptor) | Relaxation of KCl-induced contracted aortic ring (isolated thoracic aorta) | Cellular NO release compared among ginsentides [1] | Retention in heparin HPLC affinity column [2] |
| --- | --- | --- | --- | --- | --- |
| CC(C)=CCC[C@](C)(O[C@@H]1O[C@H](CO[C@@H]2O[C@H](CO)[C@@H](O)[C@H](O)[C@H]2O)[C@@H](O)[C@H](O)[C@H]1O)[C@H]1CC[C@]2(C)[C@@H]1[C@H](O)C[C@@H]1[C@@]3(C)CC[C@H](O[C@@H]4O[C@H](CO)[C@@H](O)[C@H](O)[C@H]4O[C@@H]4O[C@H](CO)[C@@H](O)[C@H](O)[C@H]4O)C(C)(C)[C@@H]3CC[C@]12C [ginsenoside Rb1] | did not showed any protective effects | – | – | – | – |
| CC(C)=CCC[C@](C)(O[C@@H]1O[C@H](CO)[C@@H](O)[C@H](O)[C@H]1O)[C@H]1CC[C@]2(C)[C@@H]1[C@H](O)C[C@@H]1[C@@]3(C)CC[C@H](O)C(C)(C)[C@@H]3[C@@H](O[C@@H]3O[C@H](CO)[C@@H](O)[C@H](O)[C@H]3O[C@@H]3O[C@@H](C)[C@H](O)[C@@H](O)[C@H]3O)C[C@]12C [ginsenoside Re] | did not showed any protective effects | – | – | – | – |
| CC(C)=CCC[C@](C)(O[C@@H]1O[C@H](CO)[C@@H](O)[C@H](O)[C@H]1O)[C@H]1CC[C@]2(C)[C@@H]1[C@H](O)C[C@@H]1[C@@]3(C)CC[C@H](O)C(C)(C)[C@@H]3[C@@H](O[C@@H]3O[C@H](CO)[C@@H](O)[C@H](O)[C@H]3O)C[C@]12C [ginsenoside Rg1] | did not showed any protective effects | – | – | – | – |
| CISSGGWCGFD-LHGCCG--NCGCLV--GFCYGTGC- (CISSGGWCGFDLHGCCGNCGCLVGFCYGTGC; listed as Panax quinquefolius) [Ginsentide TP8] | – | relaxes phenylephrine-induced aortic ring contraction | not KCI-induced contracted aortic ring | comparable cellular NO release | – |
| CKSAGTWCGFD-PHGCCG--SCGCLV--GFCYGVSC- (CKSAGTWCGFDPHGCCGSCGCLVGFCYGVSC; Panax ginseng) [Ginsentide TP3] | – | relaxes phenylephrine-induced aortic ring contraction | not KCI-induced contracted aortic ring | comparable cellular NO release | retented in a heparin HPLC affinity column |
| CKSGGSWCGFD-PHGCCG--NCGCLV--GFCYGTGC- [Ginsentide TP9] | – | – | – | – | retented in a heparin HPLC affinity column |
